Laboratory results reported in patent US20240165196A1, “Beta-Lactamase Inhibitors” (VIB VZW, priority 2021, published 2024).

Experiments:
[1] = test system: TEM beta-lactamase in E. coli UZ_TEM104; assay: western blot of inclusion body (IB) fraction for TEM; assay type: cell-based; conditions: 12 μM peptide in PBS, 120 min
Method: (§1) FIGS. 3A-3P. […] Three replicates are shown for each condition. […] A single representative image is shown. […] Three replicates are shown for each condition. (FIG. 3E) [Left] […] [Middle] […] [Right] […] A single representative image is shown. […] A single representative image is shown. […] A single representative image is shown. […] A single representative blot is shown. […] 106 cells were analysed for the plot.
(§2) Moreover, we confirmed the presence of the protein in the correct band using mass spectrometry proteomics. We repeated this with a strain expressing SHV-154, blotting with a polyclonal rabbit antibody raised against the recombinant SHV enzyme described above (FIG. 3K).
(§3) The overnight culture of bacteria was centrifuged for 30 min at 4,000×g and cells were washed with physiological water (NaCl 0.9%). Bacterial cells were treated by peptide at the appropriate concentration for at least 2 h at 37 C. The bacterial pellets were washed with 10 mL buffer A (50 mM HEPES, pH 7.5, 300 mM NaCl, 5 mM β-mercaptoethanol, 1.0 mM EDTA) and centrifuged at 4° C. for 30 min at 4,000×g. The supernatant was discarded and 20 mL of buffer B (buffer A plus 1 tablet of the protease and phosphatase Inhibitor Cocktail (ab201119, Abcam, UK) was added to the bacterial pellet. In order to break the cells, a High-Pressure Homogenizer (Glen Creston Ltd) with the pressure set to 20,000-25,000 psi was used on ice, and in addition, the suspensions were sonicated (Branson Digital sonifier 50/60 Hz) on ice with alternating 2 min cycle (15 pulses at 50% power with 30 s pauses on ice, until completing 2 min total sonication time). The lysed cells were centrifuged at 4° C. for 30 min at 11,000×g. The precipitated fraction was afterward re-suspended with 10 mL buffer D (buffer A plus 0.8% (V/V) Triton X-100, 0.1% sodium deoxycholate) and the suspension was sonicated to ensure the pellet is completely dissolved. This step was repeated three times. Centrifugation was performed at 4° C. for 30 min at 11,000×g. Finally, to solubilize IBs, the pellet was suspended in 500 ul of buffer F (50 mM HEPES, pH 7.5, 8.0 M urea) of precipitated fraction.

[2] = test system: SHV beta-lactamase in strain expressing SHV-154; assay: western blot of inclusion body (IB) fraction for SHV; assay type: cell-based, E. coli; conditions: 12 μM peptide in PBS, 120 min
Method: as §1, §2, §3

[3] = test system: primary Human Umbilical Vein Endothelial Cells (HUVEC); assay type: cell-based
E. coli SHV-11 = assay: checkerboard assay (FICI), peptide versus penicillin G; assay type: cell-based; conditions: strain with SHV-11; FICI below 0.5 = synergy
Source text: (§4) FIGS. 2A-2M. (FIG. 2A) TEM mutations and their effects on stability (total energy) as predicted by FoldX. […] Dashed line indicates a total energy difference of 0.5 kcal/mol, the FoldX cut-off above which mutations are considered to be destabilizing. (FIG. 2B) Barplot mapping mutations in (FIG. 2A) to the TEM sequence and indicating occurrence. […] The bar heights correspond to the number of times a mutation occurs across different TEM variants (right-hand y-axis). The color coding is identical to that in (FIG. 2A). Red line indicates the TANGO scores (indicated on the left-hand y-axis), with peaks corresponding to APRs. (FIG. 2C) Mapping of mutations in (FIG. 2A) and (FIG. 2B) to the TEM structure (pdb 1xpb). Protein surface is shown in gray, color coding of mutations is identical to (FIG. 2A) and (FIG. 2B). (FIGS. 2D, 2E, and 2F) Temperature-dependent evolution of the Right-Angle Light Scattering (RALS) intensity during a temperature ramp, similar as in FIG. 1F for key mutants of TEM1, namely TEM-10 (FIG. 2D), TEM-30 (FIG. 2E) and TEM-155 (FIG. 2F). Experiments were shown in triplicate, single repeat is shown. (FIG. 2G) Schematic representation of the structure of the peptides. APR—Aggregation Prone Region, R—Arginine. (FIG. 2H) Ribbon representation of the superposition of the crystal structures of TEM (green, pdb id 1bt5) and SHV (blue, pdb id 1shv). The catalytic site of the beta-lactamase activity is indicated and location of APR3 is shown in red. (FIG. 2I) TANGO aggregation score and alignment of APR3 in TEM and SHV. (FIG. 2J) Fractional Inhibitory Concentration Index determination of 5 peptides versus penicillin on E. coli TEM-104. […] FICI values below 0.5 indicate synergy. Values between 0.5 and 1.0 indicate additivity and values greater than 1 indicate indifference between the combined substances. (FIG. 2K) Same as J for E. coli SHV-11. (FIG. 2L) Same as J for a kanamycin resistant E. coli strain. (FIG. 2M) FICI values for the TEM3.2 peptide on a range of E. coli strains.
(§5) Moreover, the core sequence of peptide TEM3.0 also occurs in the structurally related SHV β-lactamase ([…]). Although the C-terminal extension residues H and N have been replaced with physicochemically similar R and Q, respectively (FIG. 2H). […] To quantify the synergy between these four peptides and penicillin G, we performed a so-called checkerboard assay, which allows to compare the activity of two test compounds co-incubated (here peptide and a beta-lactam antibiotic), to their individual activities in isolation. The result from the assay is quantified as the Fractional Inhibitory Concentration Index (FICI), and it is generally accepted that values below 0.5 indicate synergistic effects between the compounds. As a control, we generated a peptide using the same design, but based on a previously identified APR from the β-galactosidase enzyme (BGAL)^16 from E. coli (APR=SVIIWSL, peptide sequence=[…]) that has a MIC value>100 μg/mL on E. coli strain UZ_TEM104. We evaluated the synergy of the peptides with penicillin G in clinical E. coli isolates carrying the TEM ([…]) or SHV enzymes ([…]). […] As a further control, we also performed a checkerboard assay with an E. coli strain that was resistant to the aminoglycoside kanamycin and observed no synergy between this unrelated antibiotic and our peptides (FIG. 2L), in line with the notion that we are inhibiting a beta-lactamase but not the aminoglycoside degrading enzyme. […] The list of strains included some that harbored only TEM or SHV, but others contained additional Ambler Class A (CTX-M or […]) or Class B (VIM and NDM) beta-lactamases. […] In contrast, the presence of the NDM-type […], that does have a high affinity for Ampicillin and that is completely distinct in sequence and structure from TEM and SHV, seemed to completely prevent the effect of the peptide on the beta-lactam sensitivity of the strains in which it occurred (see also further). […]

E. coli TEM-104 = assay: as above; assay type: cell-based; conditions: strain with TEM; FICI below 0.5 = synergy
Source text: as §4, §5

Substance | enrichment of the TEM protein in inclusion bodies (western blot) [1] | accumulation of the SHV enzyme in inclusion bodies (western blot) [2] | cytotoxicity (Cell Titer Blue) [3] | synergy with penicillin G (FICI) (E. coli SHV-11) | synergy with penicillin G (FICI) (E. coli TEM-104)
Ac-RLTAFLHNRRPRLTAFLRQRR-NH2 [TEM3.2] | clear enrichment of the TEM protein in IBs | accumulates in IBs | not cytotoxic | synergy | synergy
Ac-RLTAFLHNRRPRLTAFLHNRR-NH2 [TEM3.0] | clear enrichment of the TEM protein in IBs | not |  | not in a strain containing the SHV-11 enzyme | clear synergy
